Source: the supplement of paper PMC6965134
± gives the standard deviation of the averaged measurements.

Assay: TIMS collisional cross section (CCS, N2) of the lipid ion; higher = larger ion cross section
Conditions: ionization mode: positive, one isomer drawn

Structure (SMILES)	TIMS collisional cross section (sample type: plasma) [Å²]	TIMS collisional cross section (sample type: HeLa) [Å²]	TIMS collisional cross section (sample type: Liver) [Å²]
CC/C=C\C/C=C\C/C=C\C/C=C\C/C=C\C/C=C\CCC(=O)O[C@H](CO)COP(=O)(O)OCCN [LPE 22:6] (ion (formula + adduct): [C27H44NO7P+H] 1+)	217.7	–	–
CC/C=C\C/C=C\C/C=C\C/C=C\C/C=C\C/C=C\CCC(=O)OC[C@@H](O)COP(=O)(O)OCCN [LPE 22:6] (ion (formula + adduct): [C27H44NO7P+H] 1+)	218.3 ± 0.85	218.95 ± 0.071	218
CCCCC/C=C\C/C=C\CCCCCCCCCC(=O)OC[C@@H](O)COP(=O)(O)OC[C@@H](O)CO [LPG 20:2] (ion (formula + adduct): [C26H49O9P+H] 1+)	–	–	230.1
CCCCCCCCCCCCCCCCCC(=O)OC[C@@H](O)COP(=O)(O)O[C@H]1C(O)C(O)C(O)[C@@H](O)C1O (some centres not stated) [LPI 18:0] (ion (formula + adduct): [C27H53O12P+H] 1+)	248.8	248.8	249.1
CCCCC/C=C\C/C=C\CCCCCCCC(=O)OC[C@@H](O)COP(=O)(O)O[C@H]1C(O)C(O)C(O)[C@@H](O)C1O (some centres not stated) [LPI 18:2_0:0] (ion (formula + adduct): [C27H49O12P+H] 1+)	243	–	–
CCCCCCCCCCCCCCCCCC(=O)OC[C@@H](O)COP(=O)(O)OC[C@H](N)C(=O)O [LPS 18:0] (ion (formula + adduct): [C24H48NO9P+H] 1+)	–	229.2	229.2
CCCCC/C=C\C/C=C\C/C=C\C/C=C\CCCC(=O)OC[C@@H](O)COP(=O)(O)OC[C@H](N)C(=O)O [LPS 20:4] (ion (formula + adduct): [C26H44NO9P+H] 1+)	–	–	221.9
OC[C@]([H])(OC(CCC/C=C\C/C=C\C/C=C\C/C=C\CCCCC)=O)CO [MG 0:0_20:4_0:0] (ion (formula + adduct): [C23H38O4+H] 1+)	197.1	–	195.7
CCCCC/C=C\C[C@H](O)/C=C/C=C\C/C=C\CCCC(=O)O[C@H](COC(=O)CCCCCCCCCCCCCCC)COP(=O)([O-])OCC[N+](C)(C)C [Oxidized PC 16:0@_20:4] (ion (formula + adduct): [C44H80NO9P+H] 1+)	289.9 ± 0.36	–	–
CCCCCCCCCCCCCCCC(=O)OC[C@H](COP(=O)([O-])OCC[N+](C)(C)C)OC(=O)CCCC=O [Oxidized PC 16:0_5:0@] (ion (formula + adduct): [C29H56NO9P+H] 1+)	245.55 ± 0.35	–	245.3
CCCCCCCCCCCCCCCC(=O)OC[C@H](COP(=O)([O-])OCC[N+](C)(C)C)OC(=O)CCCCCCCC=O [Oxidized PC 16:0_9:0@] (ion (formula + adduct): [C33H64NO9P+H] 1+)	257 ± 0.14	257.85 ± 1.6	–
CCCCC/C=C\C[C@H](O)/C=C/C=C\C/C=C\CCCC(=O)O[C@H](COC(=O)CCCCCCCCCCCCCCC)COP(=O)([O-])OCC[N+](C)(C)C [Oxidized PC 16:0_20:4@] (ion (formula + adduct): [C44H80NO9P+H] 1+)	–	–	290.3
CCCCC/C=C\C[C@H](O)/C=C/C=C\C/C=C\CCCC(=O)O[C@H](COC(=O)CCCCCCCCCCCCCCCCC)COP(=O)([O-])OCC[N+](C)(C)C [Oxidized PC 18:0@_20:4] (ion (formula + adduct): [C46H84NO9P+H] 1+)	297.15 ± 0.92	–	–
CCCCC/C=C\C[C@H](O)/C=C/C=C\C/C=C\CCCC(=O)O[C@H](COC(=O)CCCCCCCCCCCCCCCCC)COP(=O)([O-])OCC[N+](C)(C)C [Oxidized PC 18:0_20:4] (ion (formula + adduct): [C46H84NO9P+H] 1+)	296.7	–	–
CCCCCCCCCCCCCCCCCC(=O)O[C@H](COC(=O)CCCCCCC)COP(=O)([O-])OCC[N+](C)(C)C [PC 8:0_18:0@] (ion (formula + adduct): [C34H68NO8P+H] 1+)	–	–	265.4
CCCCCCCCCCCCCC(=O)O[C@H](COC(=O)CCCCCCCCCCC)COP(=O)([O-])OCC[N+](C)(C)C [PC 12:0@_14:0] (ion (formula + adduct): [C34H68NO8P+H] 1+)	–	266.9	–
CCCCCCCCCCCCCCC(=O)O[C@H](COC(=O)CCCCCCCCCCC)COP(=O)([O-])OCC[N+](C)(C)C [PC 12:0_15:0@] (ion (formula + adduct): [C35H70NO8P+H] 1+)	269.3	–	–
CCCCCCCCCCCCCCC(=O)O[C@H](COC(=O)CCCCCCCCCCCCC)COP(=O)([O-])OCC[N+](C)(C)C [PC 14:0@_15:0] (ion (formula + adduct): [C37H74NO8P+H] 1+)	–	276.1	–
CCCCCCCCCCCCCCCC(=O)O[C@H](COC(=O)CCCCCCCCCCCCC)COP(=O)([O-])OCC[N+](C)(C)C [PC 14:0@_16:0] (ion (formula + adduct): [C38H76NO8P+H] 1+)	–	279.2	–

Structure (SMILES)	TIMS collisional cross section (sample type: plasma) [Å²]	TIMS collisional cross section (sample type: HeLa) [Å²]	TIMS collisional cross section (sample type: Liver) [Å²]
CC/C=C\C/C=C\C/C=C\CCCCCCCC(=O)O[C@H](COC(=O)CCCCCCCCCCCCC)COP(=O)([O-])OCC[N+](C)(C)C [PC 14:0@_18:3] (ion (formula + adduct): [C40H74NO8P+H] 1+)	–	–	277.5
CC/C=C\C/C=C\C/C=C\C/C=C\CCCCC(=O)O[C@H](COC(=O)CCCCCCCCCCCCC)COP(=O)([O-])OCC[N+](C)(C)C [PC 14:0@_18:4] (ion (formula + adduct): [C40H72NO8P+H] 1+)	–	278.8	–
CCCCC/C=C\C/C=C\C/C=C\C/C=C\CCCC(=O)O[C@H](COC(=O)CCCCCCCCCCCCC)COP(=O)([O-])OCC[N+](C)(C)C [PC 14:0@_20:4] (ion (formula + adduct): [C42H76NO8P+H] 1+)	282	–	–
CC/C=C\C/C=C\C/C=C\C/C=C\C/C=C\C/C=C\CCC(=O)O[C@H](COC(=O)CCCCCCCCCCCCC)COP(=O)([O-])OCC[N+](C)(C)C [PC 14:0@_22:6] (ion (formula + adduct): [C44H76NO8P+H] 1+)	284.8	–	–
CCCCCCCCCCCCCCC(=O)O[C@H](COC(=O)CCCCCCCCCCCCC)COP(=O)([O-])OCC[N+](C)(C)C [PC 14:0_15:0] (ion (formula + adduct): [C37H74NO8P+H] 1+)	–	276.3	–
CCCCCCCCCCCCCCCC(=O)O[C@H](COC(=O)CCCCCCCCCCCCC)COP(=O)([O-])OCC[N+](C)(C)C [PC 14:0_16:0] (ion (formula + adduct): [C38H76NO8P+H] 1+)	–	280.6	–
CCCCCC/C=C\CCCCCCCC(=O)O[C@H](COC(=O)CCCCCCCCCCCCC)COP(=O)([O-])OCC[N+](C)(C)C [PC 14:0_16:1@] (ion (formula + adduct): [C38H74NO8P+H] 1+)	–	276.5	–
CCCCCC/C=C\CCCCCCCC(=O)O[C@H](COC(=O)CCCCCCCCCCCCC)COP(=O)([O-])OCC[N+](C)(C)C [PC 14:0_16:1] (ion (formula + adduct): [C38H74NO8P+H] 1+)	–	275.8	–
CCC/C=C\C/C=C\CCCCCCCCCC(=O)O[C@H](COC(=O)CCCCCCCCCCCCC)COP(=O)([O-])OCC[N+](C)(C)C [PC 14:0_18:2] (ion (formula + adduct): [C40H76NO8P+H] 1+)	278.7	279.2	–
CC/C=C\C/C=C\C/C=C\C/C=C\C/C=C\C/C=C\CCC(=O)O[C@H](COC(=O)CCCCCCCCCCCCC)COP(=O)([O-])OCC[N+](C)(C)C [PC 14:0_22:6@] (ion (formula + adduct): [C44H76NO8P+H] 1+)	–	285.3	–
CCCC/C=C\CCCCCCCC(=O)OC[C@H](COP(=O)([O-])OCC[N+](C)(C)C)OC(=O)CCCCCCC/C=C\CCCCCC [PC 14:1@_16:1] (ion (formula + adduct): [C38H72NO8P+H] 1+)	–	272.4	–
CCCC/C=C\CCCCCCCC(=O)OC[C@H](COP(=O)([O-])OCC[N+](C)(C)C)OC(=O)CCCCCCCCCCCCCCCCC [PC 14:1@_18:0] (ion (formula + adduct): [C40H78NO8P+H] 1+)	–	282.3	–
CCCCC/C=C\C/C=C\CCCCCCCC(=O)O[C@H](COC(=O)CCCCCCCCCCCCCC)COP(=O)([O-])OCC[N+](C)(C)C [PC 15:0@_18:2] (ion (formula + adduct): [C41H78NO8P+H] 1+)	280.9	–	281
CCCCC/C=C\C/C=C\C/C=C\CCCCC(=O)O[C@H](COC(=O)CCCCCCCCCCCCCC)COP(=O)([O-])OCC[N+](C)(C)C [PC 15:0@_18:3] (ion (formula + adduct): [C41H76NO8P+H] 1+)	–	279.7	–
CC/C=C\C/C=C\C/C=C\C/C=C\C/C=C\CCCC(=O)O[C@H](COC(=O)CCCCCCCCCCCCCC)COP(=O)([O-])OCC[N+](C)(C)C [PC 15:0@_20:5] (ion (formula + adduct): [C43H76NO8P+H] 1+)	–	282.3	–
CC/C=C\C/C=C\C/C=C\C/C=C\C/C=C\C/C=C\CCC(=O)O[C@H](COC(=O)CCCCCCCCCCCCCC)COP(=O)([O-])OCC[N+](C)(C)C [PC 15:0@_22:6] (ion (formula + adduct): [C45H78NO8P+H] 1+)	288.2	–	–
CCCCCCCCCCCCCCCC(=O)O[C@H](COC(=O)CCCCCCCCCCCCCC)COP(=O)([O-])OCC[N+](C)(C)C [PC 15:0_16:0] (ion (formula + adduct): [C39H78NO8P+H] 1+)	–	282.1	–
CCCCCC/C=C\CCCCCCCC(=O)O[C@H](COC(=O)CCCCCCCCCCCCCC)COP(=O)([O-])OCC[N+](C)(C)C [PC 15:0_16:1] (ion (formula + adduct): [C39H76NO8P+H] 1+)	–	278.9	–
